Target: NA of influenza B clinical isolates (Influenza B virus, UniProt A0A1X9RX69)
Type: biochemical

## CCC(CC)[C@H](NC(C)=O)[C@@H]1[C@H](O)[C@@H](C(=O)O)C[C@H]1N=C(N)N [Peramivir, peramivir]
  IC50: 0.47 ± 0.4 nM

From PMC6237300, “Influenza B viruses circulated during last 5 years in Mongolia” (PLoS ONE, 2018)
